Measured values published in patent US20100292306A1, “Compositions And Methods For The Treatment Of Muscular Dystrophy” (priority 2005, published 2010).

System: mdx triangularis sterni (TS) muscle
Test: Percent fibers and percent striated fibers in photographed areas of fixed mdx TS muscle
Assay type: in vivo, mdx mice
Protocol: To evaluate the effect of various chemical agents on animal models of MD, experimental male and female mdx mice may be injected intraperitoneally (ip) with various chemicals at different dosage. In the case of pyrrolidine dithiocarbamate (PDTC) (50-75 mg/kg of PDTC (obtained from Sigma) may be dissolved in a saline solution (HEPES-Ringer; in mM: 147.5 NaCl, 5 KCl, 2 CaCl2, 11 glucose, 5 HEPES, pH 7.35) for injection. […] The mice may be sacrificed after 1-24 months from the beginning of treatment to determine the effect of the treatment with the chemicals.
In one embodiment, the treatment effect may be evaluated by comparing the morphological results between 3 regions of the triangularis sterni (TS); the caudal third of the muscle extending toward the xiphoid process, the middle third, and the cephalad third of the muscle. This procedure is adopted because there are obvious differences between these regions in the extent of pathology and the muscle thickness in the mdx TS (not clearly seen in the nondystrophic TS) even when examining the muscle at low power (e.g., 4×). Results from animals that die during the experimental time frame (both saline injected and PDTC treated) are typically excluded from the study.
Morphological assessment of total fiber density and density of striated fibers may be conducted as described in the following text. Immediately after completing the resting potential measurements, the minimally stretched TS muscle preparations attached to the dissecting hooks may be fixed overnight in 2% glutaraldehyde (0.1 M cacodylate buffer) and subsequently washed several times in 0.1 M cacodylate. Before removing the preparation from the recording chamber, microphotographs of approximately 24 randomly sampled areas may be obtained at 200-300× magnification in caudal, middle, and cephalad regions of the TS. In the initial studies, a smaller number of photographs may be obtained over the middle portion of the TS muscle.
Each preparation may be illuminated using bright-field optics to minimize depth of focus issues in visualizing muscle fiber striations. Since the mdx TS muscle is a flat and thin preparation, all the fibers in each area are roughly within the same focal plane. However, small variations in depth of focus may produce small variations in the appearance of striated fibers. Such effects may be minimized by routinely adjusting the plane of focus to maximize the number of striated fibers in each photographed area. The density of muscle fibers and the density of striated fibers may then be evaluated for each sampled area by drawing a line orthogonal to the principal axis of the TS muscle fibers across the entire viewing area of each photograph. The percentage of the length of this line that covered muscle fibers and the percentage of this line that covered striated muscle fibers (defined as having striations over at least 50% of the observed length) may be used to determine the percentage of muscle fibers and striated muscle fibers, respectively, for each photographed muscle area. Control experiments using these procedures on adult nondystrophic TS muscles (N=37 areas, 2 TS muscles at 19 and 27 months) may yield average values of 99.1±0.5 (SE) percent fibers and 96.7±1.2 percent striated fibers with no regional differences across the caudal, middle, and cephalad thirds of the muscle (FIG. 3).
In freshly isolated preparations of mdx TS muscle, hypercontraction and myofibrillar disorganization are expressed as a decrease in the appearance of striated muscle fibers (See e.g., FIG. 2A) and fiber loss and fibrosis appear as a decrease in the number of fibers in individual areas of the TS (See e.g., FIG. 2B; cf. Carlson et al., 2003 and Cullen and Fulthorpe, 1975). […]

SMILES: S=C(S)N1CCCC1 [PDTC, pyrrolidine dithiocarbamate]
- density of fibers in the TS (50 mg/kg ip 48-76 days, Series 2 (11.5-18.5 months) and Series 3 (21.5-22 months)): increases
- increase in the percentage of striated muscle fibers (Series 1, vs untreated, P<0.01): 3 fold
- striated fibers in photographed area (Series 1: 50-75 mg/kg ip daily 27-30 days, 8.5-9 months at sacrifice, middle region, FIG. 2C): approximately 82%
- average percent fibers (Series 1: 50-75 mg/kg ip daily 27-30 days, same in untreated): about 80%
- density of striated fibers (Series 1: 50-75 mg/kg ip, 27-30 days, 8.5-9 months at sacrifice): increases
- increase in the percent of fibers (Series 2: 50 mg/kg daily, 11.5-18.5 months at sacrifice, middle third, P<0.01 vs saline): 1.7 fold
- overall percent of fibers across all regions (Series 2, P<0.05 vs saline): significant increase
- increased percent of striated fibers (Series 2, middle region, P<0.01 vs saline): 8.4 fold
- increase in the percent of striated fibers (Series 3 (22 months), caudal, middle and overall total of sampled areas): 22- to 68 fold
- increases in the density of muscle fibers (Series 3: aged mdx mice (22 months), 50 mg/kg daily, across all regions, P<0.01 or P<0.001): 4.1- to 11.1 fold
- overall percent fibers (Series 4: individual mdx mouse, 50 mg/kg on 238 of 258 days, 13.5 months of age, N=25): 82.2±2.6%
- overall percent striated fibers (Series 4: individual mdx mouse, 50 mg/kg on 238 of 258 days, 13.5 months of age, N=25 areas): 40.4±2.6%
- effect of treatment on the percent of striated fibers (Series 4: longer administration beginning in 5 month mdx mice, middle and cephalad regions, P<0.001): significant effect
- density of striated TS fibers (daily PDTC, Series 2 and Series 3): increases
